{"source": "patent US6921530B1", "about": "“Low dose IL-2 for potentiation of immunity” (Cornell Research Foundation, Inc., priority 1999, dated 2005)", "key": {"[1]": {"tested_on": "HIV p24-reactive T cells and NK cells", "experiment": "Activation markers after 18 h whole blood activation with HIV p24 (flow cytometry)", "format": "cell-based, human", "source_text": "FIG. 4 Expression of activation markers of CD4+ T cells and CD4− T cells after stimulation with HIV p24. Vertical axis=CD4, upper row horizontal axis=CD69, middle row=CD25, lower row=IFN-γ. A=subject #1, B=subject #2, C=subject #3, and D=subject #8. Numbers in right quadrants represent the % of CD4+ (upper) and CD4− (lower) T cells that reacted with the monoclonal antibody directed against the respective activation marker. The numbers in the column on the right represent the mean±SEM of the percentage positive cells from all 4 subjects. The values for control cultures, which received monoclonal antibodies reactive with accessory molecules alone (CD28 & CD49d) without HIV p24, were subtracted from the plots and percentages shown.\nTo identify activated cells, whole blood (1 ml) was cultured for 18 hours with the co-stimulatory antibodies anti-CD28 and anti-CD49d, and HIV p24 antigen (1 μg/ml, Research Diagnostics, Inc., Flanders N.J.) and cytomegalovirus antigen (1 μg/ml, Advanced Biotechnologies, Columbia, Md.). At the end of the incubaton the erythrocytes were lysed using FACSLysing Solution™ (9 ml). The cells were then either frozen at −70° C. in 2 ml RPMI 1640 medum with 10% Dimethyl Sulfoxide (Sigma, St. Louis, Mo.) or permeabilized with FACSPerm Solution™ (2 ml). Thereafter the cells were reacted with anti-CD3-PerCP, anti-CD4-PE, anti-CD8-PE, anti-CD56-PE, anti-CD69-FITC, anti-CD25-FITC, and anti-IFN-γ-FITC. All antibodies were from Becton Dickinson.\nFIG. 5 Expression of interferon γ (IFN-γ) by CD-3+ and CD3− lymphocytes. A. Cells examined for size and granularity (left panel), CD3 expression (middle panel), and CD8 expression (right panel). B. Expression of IFN-γ and CD56 by CD3+ cells (gate R2), according to CD8− cells (gate R4, left panels), CD8 dim (gate R5, middle panels), and CD8+ (gate R6, right panels). Control cultures stimulated only with accessory antibodies (upper panels, HIV p24-stimulated cultures (lower panels). C. Expression of IFN-γ and CD56 by CD3− cells (gate R3), according to CD8− cells (gate R4, left panels), CD8dim (gate 5, middle panels) and CD8+ (gate R6, right panels). Control cultures stimulated only with accessory antibodies (upper panes, antiCD28, CD49d), HIV p-24-stimulated cultures (lower panels). Numbers in upper quadrants represent the percentages of CD56− and CD56+ cells that also reacted with anti-IFN-γ. To examine the activation of T cells and NK cells together, the cells were reacted with anti-CD3-PerCP, anti-CD8-PE, and anti-CD56-FITC, together with anti-IFN-γ-APC, all from Becton Dickinson.\nTo examine the HIV specific reactivity of CD4+ T cells, we performed an 18-hour activation of whole blood with HIV p24 followed by a 4-hour incubation with Brefeldin A to inhibit secretion. Subsequently, the cells were examined by flow cytometry after reaction with fluorochrome-conjugated monoclonal antibodies. Shown in FIG. 4 are the results from experiments performed with blood from the subjects who underwent a second treatment interruption when they had experienced the second CD8+ T lymphocytosis and had reached a stable concentration of plasma virus. Only CD3+ T cells were examined. […] In addition, subjects #1, 2 and 8 also expressed IFN-γ (mean 2.0%±1.2% SEM), while subject #3 had reactivity just above the limits of detection (0.2%). Also depicted in FIG. 4 are the results of the activation markers expressed by CD4− T cells, which are all CD8+, as determined by direct analysis for CD8 expression. There were also CD4− T cells stimulated to express CD69 (mean 3.2%±2.1% SEM) and CD25 (mean 1.9%±0.9% SEM). Moreover, CD4− T cells from subjects #1 and 2 also expressed IFN-γ, whereas the cells from subject 3 and 8 were at the level of detection (0.1%).\nIt was unexpected to find CD3+, CD4− cells capable of expressing surface markers of activation, and as well, producing detectable intracellular IFN-γ after HIV p24 stimulation. […]"}, "HCV": {"tested_on": "HCV", "conditions": "cited from earlier work"}, "HIV infection": {"tested_on": "HIV infection", "experiment": "Daily IL-2 in conjunction with HAART in HIV infection (earlier experience)", "format": "in vivo, human", "conditions": "after 6 months of IL-2 therapy", "source_text": "Daily low-dose IL-2 therapy served to correct the deficiency in CD4+ T cells, while maintaining the high frequency of CD8+ HIV-specific CTL, and increasing the circulating NK cells."}, "[2]": {"conditions": "4 subjects after second treatment interruption, mean ± SEM"}, "[3]": {"conditions": "subject #1, HIV antigen activated"}}, "note": "“And” between values parts separate entries of the source, which are not always exact repeats. Equal values may be shown once.", "data": [{"substance": "Interleukin-2 [IL-2]", "values": [{"measurement": "CD4+ T cells stimulated by HIV p24 to express CD25", "setting": "[1]; [2]", "value": "15.5%±2.1% and 15.5%"}, {"measurement": "CD4+ T cells stimulated by HIV p24 to express CD69", "setting": "[1]; [2]", "value": "4.3%±0.45"}, {"measurement": "CD4− T cells stimulated by HIV p24 to express CD25", "setting": "[1]; [2]", "value": "1.9%±0.9%"}, {"measurement": "CD4− T cells stimulated by HIV p24 to express CD69", "setting": "[1]; [2]", "value": "3.2%±2.1%"}, {"measurement": "CD4− T cells expressing IFN-γ", "setting": "[1]; subject 3 and 8, at the level of detection", "value": 0.1, "unit": "%"}, {"measurement": "CD3-, CD8-dim cells that are CD56+ producing IFN-γ", "setting": "[1]; [3]", "value": 28, "unit": "%"}, {"measurement": "CD3−, CD8− cells that express CD56 producing IFN-γ", "setting": "[1]; [3]", "value": 33, "unit": "%"}, {"measurement": "CD4+ T cells stimulated by HIV p24 to express IFN-γ", "setting": "[1]; subject #3, just above the limits of detection", "value": 0.2, "unit": "%"}, {"measurement": "CD4+ T cells stimulated by HIV p24 to express IFN-γ", "setting": "[1]; subjects #1, 2 and 8, mean ± SEM", "value": "2.0%±1.2%"}, {"measurement": "dose best tolerated and most effective", "setting": "HCV; 33 subjects, s.c., 12 weeks, no IFN", "value": "2×10^6 CT/day"}, {"measurement": "sustained virologic response", "setting": "HCV; in vivo", "value": "No sustained virologic response was found"}, {"measurement": "biochemical response rate (normalization of ALT) at the end of treatment", "setting": "HCV; preferred dose, 12 weeks", "value": 24, "unit": "%"}, {"measurement": "biochemical response rate 6 months following a 12 week course", "setting": "HCV; preferred dose", "value": 12, "unit": "%"}, {"measurement": "Delayed Type Hypersensitivity (DTH) to common environmental antigens", "setting": "HIV infection", "value": "more than doubled"}]}]}
